Starred links: 1 amine or outer side, 2 acyl side, 3 side chain; linkers in the order of their positions; H or OH if unused. Positions of bridges follow the written chain, without caps; N, C: chain ends. Residues, ends and D or L forms follow the SMILES beside them. No end group written: not given here. X1 = O=C(C[*:1])O[C@@H]1C=C[C@H](OC(=O)C[*:2])C1; X2 = O=C(C[*:1])O[C@@H]1CC[C@H](OC(=O)C[*:2])C1

A short description of data set [1]: Measurement of LogD (CHI logD by HPLC). It counts as physicochemical. The conditions noted are these: CHI log D, 50 mM ammonium acetate pH 7.4 / acetonitrile gradient, C-18 column, 25° C. The method, then: Measurement of LogD: LogD values were measured on a Agilent 1260 HPLC with UV detector (254, 220 nm), using a Gemini NX C-18 50×3 mm column (Phenomenex) with a 6-minute 0-100% mobile phase gradient of A) 50 mM ammonium acetate pH 7.4 and B) Acetonitrile at 25° C. with a flow rate of 1 mL/min and injection volume of 3-5 uL.

Another data set has as its target T1, full-length β-Catenin (Homo sapiens, UniProt P35222).
T1 construct: Probe solution (15 nM full-length β-Catenin, 20 nM FITC labeled Axin peptide in buffer)
T1 sequence (P35222 1-781): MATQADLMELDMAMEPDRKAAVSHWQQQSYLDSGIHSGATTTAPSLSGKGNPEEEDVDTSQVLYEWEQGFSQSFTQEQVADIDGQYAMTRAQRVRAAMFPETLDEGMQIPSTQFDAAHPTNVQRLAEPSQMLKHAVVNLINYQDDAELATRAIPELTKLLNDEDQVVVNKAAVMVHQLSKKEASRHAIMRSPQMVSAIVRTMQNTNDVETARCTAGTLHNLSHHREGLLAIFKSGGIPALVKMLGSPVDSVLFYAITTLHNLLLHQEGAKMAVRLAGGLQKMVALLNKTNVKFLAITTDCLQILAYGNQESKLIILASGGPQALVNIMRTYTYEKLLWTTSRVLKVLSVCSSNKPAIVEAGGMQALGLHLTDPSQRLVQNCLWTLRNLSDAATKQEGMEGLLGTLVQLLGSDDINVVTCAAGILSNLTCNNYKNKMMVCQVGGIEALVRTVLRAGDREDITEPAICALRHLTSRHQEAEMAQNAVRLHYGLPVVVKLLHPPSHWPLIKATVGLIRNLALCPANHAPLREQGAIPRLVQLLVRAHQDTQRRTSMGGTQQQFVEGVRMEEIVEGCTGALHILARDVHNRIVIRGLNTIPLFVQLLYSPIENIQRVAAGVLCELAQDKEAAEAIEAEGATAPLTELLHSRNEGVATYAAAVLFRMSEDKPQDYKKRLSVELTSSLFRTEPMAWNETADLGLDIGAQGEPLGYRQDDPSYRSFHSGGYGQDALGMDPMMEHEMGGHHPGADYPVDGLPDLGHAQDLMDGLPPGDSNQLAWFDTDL
Briefly: Competition fluorescence polarization assay for binding to beta-catenin (displacement of FITC labeled Axin peptide probe). The settings on record: 15 nM full-length β-Catenin, 20 nM FITC labeled Axin peptide probe, 3-fold serial dilution from 5 μM; read-out: bCat EC50. The method, then: Peptide assessment: In one assay for assessing binding to beta-catenin, peptide solutions were prepared in buffer (50 mM Tris pH 8.0, 250 mM NaCl, 2% glycerol, 0.5 mM EDTA, 0.02% w/v sodium azide) using a 3-fold serial dilution from 5 μM. Probe solution (15 nM full-length β-Catenin, 20 nM FITC labeled Axin peptide in buffer ([FAM-PEG1-RRWPR(S5)ILD(S5)HVRRVWR (SEQ ID NO: 44)] where the two S5 residues are stapled, as reported in: Proc Natl Acad Sci USA. 2012 Oct. 30; 109(44):17942-7)) was prepared and incubated for 5 minutes, then 40 μL per well plated in a black polystyrene 384-well plate (Corning). Equal volume of the titrated peptide was added to the plate and incubated protected from light for 15 minutes prior to read. Reads were performed on a Spectramax M5 (Molecular Devices) in duplicate.
(Fluorescence polarisation rises when a labelled molecule tumbles more slowly, as on binding a larger partner.)

By chromatographic logD is commonly meant a lipophilicity value derived from retention on a column. Low values mean lower lipophilicity, high ones higher lipophilicity. By EC50 is commonly meant the concentration giving half of the maximal effect. The compound `CC(C)C[C@@H]1NC(=O)[C@H](C)NC(=O)[C@H](C)NC(=O)[C@H](Cc2c[nH]c3ccccc23)NC(=O)[C@H](CCC(=O)O)NC(=O)[C@@H](NC(=O)[C@H](CCCNC(=N)N)NC(=O)[C@H](Cc2c[nH]cn2)NC(=O)[C@@H](NC(=O)[C@H](C)NC(=O)[C@@H]2CCCN2C(=O)[C@H](CC(=O)O)NC(=O)[C@H](C)N)[C@@H](C)O)CSCC(=O)N(C)c2ccc(cc2)N(C)C(=O)CSC[C@@H](C(=O)N[C@@H](CCC(=O)O)C(=O)N[C@@H](CC(C)C)C(=O)N[C@H](C(N)=O)C(C)C)NC(=O)[C@H](Cc2c[nH]cn2)NC1=O` [Compound 31] showed a chromatographic logD in data set [1] of 0.68. For the same compound, the EC50 on full-length β-Catenin was greater than 10 µM.
The corresponding values for `CC(C)C[C@@H]1NC(=O)[C@H](C)NC(=O)[C@H](C)NC(=O)[C@H](Cc2c[nH]c3ccccc23)NC(=O)[C@H](CCC(=O)O)NC(=O)[C@@H](NC(=O)[C@H](CCCNC(=N)N)NC(=O)[C@H](Cc2c[nH]cn2)NC(=O)[C@@H](NC(=O)[C@H](C)NC(=O)[C@@H]2CCCN2C(=O)[C@H](CC(=O)O)NC(=O)[C@H](C)N)[C@@H](C)O)CSCC(=O)Nc2cc(F)c(cc2F)NC(=O)CSC[C@@H](C(=O)N[C@@H](CCC(=O)O)C(=O)N[C@@H](CC(C)C)C(=O)N[C@H](C(N)=O)C(C)C)NC(=O)[C@H](Cc2c[nH]cn2)NC1=O` [Compound 32] are 0.61 and 5.17 µM.
The corresponding values for `CC(C)C[C@@H]1NC(=O)[C@H](C)NC(=O)[C@H](C)NC(=O)[C@H](Cc2c[nH]c3ccccc23)NC(=O)[C@H](CCC(=O)O)NC(=O)[C@@H](NC(=O)[C@H](CCCNC(=N)N)NC(=O)[C@H](Cc2c[nH]cn2)NC(=O)[C@@H](NC(=O)[C@H](C)NC(=O)[C@@H]2CCCN2C(=O)[C@H](CC(=O)O)NC(=O)[C@H](C)N)[C@@H](C)O)CSCC(=O)Nc2ccccc2NC(=O)CSC[C@@H](C(=O)N[C@@H](CCC(=O)O)C(=O)N[C@@H](CC(C)C)C(=O)N[C@H](C(N)=O)C(C)C)NC(=O)[C@H](Cc2c[nH]cn2)NC1=O` [Compound 35] are 0.77 and greater than 10 µM.
Taken in the same sequence, the figures for `CC(C)C[C@@H]1NC(=O)[C@H](C)NC(=O)[C@H](C)NC(=O)[C@H](Cc2c[nH]c3ccccc23)NC(=O)[C@H](CCC(=O)O)NC(=O)[C@@H](NC(=O)[C@H](CCCNC(=N)N)NC(=O)[C@H](Cc2c[nH]cn2)NC(=O)[C@@H](NC(=O)[C@H](C)NC(=O)[C@@H]2CCCN2C(=O)[C@H](CC(=O)O)NC(=O)[C@H](C)N)[C@@H](C)O)CSCC(=O)O[C@H]2CC[C@H](CC2)OC(=O)CSC[C@@H](C(=O)N[C@@H](CCC(=O)O)C(=O)N[C@@H](CC(C)C)C(=O)N[C@H](C(N)=O)C(C)C)NC(=O)[C@H](Cc2c[nH]cn2)NC1=O` [Compound 36] were 0.77 and greater than 10 µM.
In the case of `CC(C)C[C@@H]1NC(=O)[C@H](C)NC(=O)[C@H](C)NC(=O)[C@H](Cc2c[nH]c3ccccc23)NC(=O)[C@H](CCC(=O)O)NC(=O)[C@@H](NC(=O)[C@H](CCCNC(=N)N)NC(=O)[C@H](Cc2c[nH]cn2)NC(=O)[C@@H](NC(=O)[C@H](C)NC(=O)[C@@H]2CCCN2C(=O)[C@H](CC(=O)O)NC(=O)[C@H](C)N)[C@@H](C)O)CSCC(=O)O[C@@H]2CC[C@@H](C2)OC(=O)CSC[C@@H](C(=O)N[C@@H](CCC(=O)O)C(=O)N[C@@H](CC(C)C)C(=O)N[C@H](C(N)=O)C(C)C)NC(=O)[C@H](Cc2c[nH]cn2)NC1=O` [Compound 38], the chromatographic logD in data set [1] worked out at 0.8. In addition, at full-length β-Catenin, the EC50 is greater than 10 µM.
Compound `CC(C)C[C@@H]1NC(=O)[C@H](C)NC(=O)[C@H](C)NC(=O)[C@H](Cc2c[nH]c3ccccc23)NC(=O)[C@H](CCC(=O)O)NC(=O)[C@@H](NC(=O)[C@H](CCCNC(=N)N)NC(=O)[C@H](Cc2c[nH]cn2)NC(=O)[C@@H](NC(=O)[C@H](C)NC(=O)[C@@H]2CCCN2C(=O)[C@H](CC(=O)O)NC(=O)[C@H](C)N)[C@@H](C)O)CSCC(=O)O[C@@H]2C=C[C@@H](C2)OC(=O)CSC[C@@H](C(=O)N[C@@H](CCC(=O)O)C(=O)N[C@@H](CC(C)C)C(=O)N[C@H](C(N)=O)C(C)C)NC(=O)[C@H](Cc2c[nH]cn2)NC1=O` [Compound 39] showed a chromatographic logD in data set [1] of 0.75. At full-length β-Catenin, the half-maximal effective concentration (EC50) was greater than 10 µM.
Taken in the same sequence, the figures for `CC[C@H](C)[C@@H]1NC(=O)[C@H](CC(C)C)NC(=O)[C@H](C)NC(=O)[C@H](C)NC(=O)[C@H](Cc2c[nH]cn2)NC(=O)[C@H](CCC(=O)O)NC(=O)[C@@H](NC(=O)[C@H](C)NC(=O)[C@H](Cc2c[nH]c3ccccc23)NC(=O)[C@H](CC(C)C)NC(=O)[C@H](C)NC(=O)[C@@H]2CCCN2C(=O)[C@H](CC(=O)O)NC(=O)[C@H](C)N)CSCC(=O)O[C@@H]2CC[C@@H](C2)OC(=O)CSC[C@@H](C(=O)N[C@@H](CCC(=O)O)C(=O)N[C@H](C(=O)N[C@@H](CCC(N)=O)C(N)=O)[C@@H](C)O)NC1=O` [Compound 47] (H-ADPALWACEHAALICETQ-NH2; linker 8-15 via X2; N-terminus and C-terminus assumed) were 0.91 and greater than 10 µM.
For `CC[C@H](C)[C@@H]1NC(=O)[C@H](CC(C)C)NC(=O)[C@H](C)NC(=O)[C@H](C)NC(=O)[C@H](Cc2c[nH]cn2)NC(=O)[C@H](CCC(=O)O)NC(=O)[C@@H](NC(=O)[C@H](C)NC(=O)[C@H](Cc2c[nH]c3ccccc23)NC(=O)[C@H](CC(C)C)NC(=O)[C@H](C)NC(=O)[C@@H]2CCCN2C(=O)[C@H](CC(=O)O)NC(=O)[C@H](C)N)CSCC(=O)O[C@@H]2C=C[C@@H](C2)OC(=O)CSC[C@@H](C(=O)N[C@@H](CCC(=O)O)C(=O)N[C@H](C(=O)N[C@@H](CCC(N)=O)C(N)=O)[C@@H](C)O)NC1=O` [Compound 48] (H-ADPALWACEHAALICETQ-NH2; linker 8-15 via X1; N-terminus and C-terminus assumed), in data set [1], the chromatographic logD worked out at 0.93. Besides, the 50% effective concentration (EC50) at full-length β-Catenin is greater than 10 µM.
Taken in the same sequence, the figures for “GPAKPEAPGEDASPDELHHYYQNLETYLYRVA-NH2 (C-terminus assumed) [Compound 15]” were 0.82 and greater than 10 µM.
In data set [1], “GPAKPEAPGEDASPDELHTYYDTLYHYLTSVA-NH2 (C-terminus assumed) [Compound 22]” came in with a chromatographic logD of 1.09. On full-length β-Catenin, the EC50 is greater than 10 µM.
In data set [1], “GPAKPEAPGEDASPDELIFYYDHLSRYLTDVA-NH2 (C-terminus assumed) [Compound 20]” came in with a chromatographic logD of 0.91. Further, the EC50 on full-length β-Catenin is greater than 10 µM.
Taken in the same sequence, the figures for “GPAKPEAPGEDASPDELIHYYNSLDEYLYEVA-NH2 (C-terminus assumed) [Compound 16]” were 0.53 and greater than 10 µM.
The corresponding values for “GPAKPEAPGEDASPDELMHYYTSLEDYLDHVP-NH2 (C-terminus assumed) [Compound 18]” are 0.52 and greater than 10 µM.
Taken in the same sequence, the figures for “GPAKPEAPGEDASPDELRMYYHELDNYLDQVA-NH2 (C-terminus assumed) [Compound 21]” were 0.44 and greater than 10 µM.
“GPAKPEAPGEDASPDELTYYYDELRDYLYSVA-NH2 (C-terminus assumed) [Compound 19]”: the chromatographic logD in data set [1] was found to be 0.82. In addition, at full-length β-Catenin, the EC50 was greater than 10 µM.
As to “GPAKPEAPGEDASPDELYHYYTHLEEYLYDVA-NH2 (C-terminus assumed) [Compound 17]”, the chromatographic logD in data set [1] was 0.64. Moreover, the concentration giving a half-maximal response (EC50) on full-length β-Catenin is greater than 10 µM.
Taken in the same sequence, the figures for “GPAKPEAPGEDASPDELYYYYDDLRQYLSTVA-NH2 (C-terminus assumed) [Compound 23]” were 0.81 and greater than 10 µM.
Taken in the same sequence, the figures for “GPAKPEAPGEDASPEELYHYYWDLDDYLDRVA-NH2 (C-terminus assumed) [Compound 28]” were 0.62 and greater than 10 µM.
The corresponding values for “GPAKPEAPGEDASPIELWEYYESLETYLDNVA-NH2 (C-terminus assumed) [Compound 29]” are 0.73 and greater than 10 µM.
Compound “GPAKPEAPGEDASPLELNLYYLDLHDYLQQVA-NH2 (C-terminus assumed) [Compound 30]” displayed a chromatographic logD in data set [1] of 0.98. In addition, the concentration giving a half-maximal response (EC50) on full-length β-Catenin is greater than 10 µM.

The values are drawn from patent US12398178B2, “Collections of peptides, peptide agents, and methods of use thereof” (Parabilis Medicines, Inc., priority 2018, dated 2025).
